{"source": "patent US20250213532A1", "about": "“5-METHOXY-N,N-[…][…] THE TREATMENT OF BIPOLAR DISORDER” (GH RESEARCH IRELAND LIMITED, priority 2022, published 2025)", "key": {"[1]": {"test_system": "Salmonella typhimurium TA98, TA100, TA1535 and TA1537", "assay": "Bacterial mutation test, Salmonella typhimurium", "type": "cell-based", "conditions": "up to 5000 µg/plate; absence and presence of rat liver S-9", "description": "(§1) These conditions included treatments at concentrations up to […] (the maximum recommended concentration according to current regulatory guidelines), in the absence and in the presence of a rat liver metabolic activation system (S-9)."}, "[2]": {"test_system": "patients with treatment-resistant major depressive disorder (TRD)", "assay": "Phase 1/2 clinical trial of inhaled 5-MeO-DMT in TRD: MADRS", "type": "in vivo, human", "experimental": "When assessing a clinical response at an early timepoint after drug administration (e.g. at 2 hours) based on endpoints which have been developed for a longer recall period (e.g. normally 7 days for the MADRS), a rational modification of such endpoint (e.g. changing the MADRS recall period to 2 hours and carrying forward the sleep item recorded at baseline before drug administration) may be applied. The same applies with respect to the BDRS (in particular the item sleep disturbance) and any other scale applied herein, unless a recall period is specifically indicated.\nThe Montgomery-Asberg Depression Rating Scale (MADRS) is a ten-item diagnostic questionnaire used to measure the severity of depressive episodes in patients with mood disorders (Montgomery, S. A., & Asberg, M. (1979). A new depression scale designed to be sensitive to change. The British Journal of Psychiatry 134, p.382). It was designed as an adjunct to the Hamilton Rating Scale for Depression (HAM-D), which would be more sensitive to the changes brought on by antidepressants and other forms of treatment. Higher MADRS score indicates more severe depression. The items considered are apparent sadness; reported sadness; inner tension; reduced sleep; reduced appetite; concentration difficulties; lassitude; inability to feel; pessimistic thoughts; and suicidal thoughts, and each item yields a score of 0 to 6. The overall score ranges from 0 to 60. Score ranges used herein for assessing the severity of depressive episodes in patients with bipolar disorder are 13-18 for “mildly ill”, 19-23 for “moderately ill”, 24-36 for “markedly ill”, 37-39 for “severely ill”, and 40 for “extremely ill” (Thase, 2021).\nPatients were assigned to different groups.\nThis trial was designed in two parts."}, "[3]": {"test_system": "Escherichia coli WP2 uvrA pKM101", "assay": "Bacterial mutation test, Escherichia coli", "type": "cell-based", "conditions": "up to 5000 pg/plate; absence and presence of rat liver S-9", "description": "as §1"}, "[4]": {"test_system": "patients with clinically diagnosed postpartum depression (PPD)", "assay": "Clinical trial in postpartum depression: safety and tolerability", "type": "in vivo, human", "conditions": "one PPD patient", "description": "The patient completed all planned visit days."}, "[5]": {"conditions": "12 mg n=4, 2 hours, baseline 13"}, "[6]": {"conditions": "12 mg n=4, 2 hours, baseline 16"}}}
{"compound": "COc1ccc2[nH]cc(CCN(C)C)c2c1", "note": "[5-MeO-DMT]", "values": [{"measurement": "Induction of mutation", "setting": "[1]", "result": "did not induce mutation"}, {"measurement": "MADRS Suicidal Thoughts percentage improvement", "setting": "[2]; 12 mg n=4, 2 hours, baseline 8", "result": 63, "unit": "%"}, {"measurement": "MADRS Suicidal Thoughts score (sum)", "setting": "[2]; 12 mg n=4, 2 hours, baseline 8", "result": 3}, {"measurement": "MADRS Inner Tension percentage improvement", "setting": "[2]; [5]", "result": 85, "unit": "%"}, {"measurement": "MADRS Inner Tension score (sum)", "setting": "[2]; [5]", "result": 2}, {"measurement": "MADRS Concentration Difficulties percentage improvement", "setting": "[2]; [6]", "result": 56, "unit": "%"}, {"measurement": "MADRS Concentration Difficulties score (sum)", "setting": "[2]; [6]", "result": 7}, {"measurement": "MADRS Inability to Feel percentage improvement", "setting": "[2]; [6]", "result": 44, "unit": "%"}, {"measurement": "MADRS Inability to Feel score (sum)", "setting": "[2]; [6]", "result": 9}, {"measurement": "MADRS Lassitude percentage improvement", "setting": "[2]; [6]", "result": 38, "unit": "%"}, {"measurement": "MADRS Lassitude score (sum)", "setting": "[2]; [6]", "result": 10}, {"measurement": "MADRS Pessimistic Thoughts percentage improvement", "setting": "[2]; [6]", "result": 50, "unit": "%"}, {"measurement": "MADRS Pessimistic Thoughts score (sum)", "setting": "[2]; [6]", "result": 8}, {"measurement": "MADRS Suicidal Thoughts score (sum)", "setting": "[2]; 12 mg n=4, Day 1, baseline 8", "result": 5}, {"measurement": "MADRS Reduced Sleep score (sum)", "setting": "[2]; 12 mg n=4, Day 1, baseline 12", "result": 10}, {"measurement": "MADRS Inner Tension percentage improvement", "setting": "[2]; 12 mg n=4, Day 1, baseline 13", "result": 77, "unit": "%"}, {"measurement": "MADRS Inner Tension score (sum)", "setting": "[2]; 12 mg n=4, Day 1, baseline 13", "result": 3}, {"measurement": "MADRS Concentration Difficulties percentage improvement", "setting": "[2]; 12 mg n=4, Day 1, baseline 16", "result": 88, "unit": "%"}, {"measurement": "MADRS Concentration Difficulties score (sum)", "setting": "[2]; 12 mg n=4, Day 1, baseline 16", "result": 2}, {"measurement": "MADRS Inability to Feel score (sum)", "setting": "[2]; 12 mg n=4, Day 1, baseline 16", "result": 1}, {"measurement": "MADRS Lassitude percentage improvement", "setting": "[2]; 12 mg n=4, Day 1, baseline 16", "result": 100, "unit": "%"}, {"measurement": "MADRS Lassitude score (sum)", "setting": "[2]; 12 mg n=4, Day 1, baseline 16", "result": 0}, {"measurement": "MADRS Pessimistic Thoughts percentage improvement", "setting": "[2]; 12 mg n=4, Day 1, baseline 16", "result": 56, "unit": "%"}, {"measurement": "MADRS Pessimistic Thoughts score (sum)", "setting": "[2]; 12 mg n=4, Day 1, baseline 16", "result": 7}, {"measurement": "MADRS Suicidal Thoughts score (sum)", "setting": "[2]; 12 mg n=4, Day 7, baseline 8", "result": 7}, {"measurement": "MADRS Reduced Sleep score (sum)", "setting": "[2]; 12 mg n=4, Day 7, baseline 12", "result": 6}, {"measurement": "MADRS Inner Tension percentage improvement", "setting": "[2]; 12 mg n=4, Day 7, baseline 13", "result": 62, "unit": "%"}, {"measurement": "MADRS Inner Tension score (sum)", "setting": "[2]; 12 mg n=4, Day 7, baseline 13", "result": 5}, {"measurement": "MADRS Concentration Difficulties percentage improvement", "setting": "[2]; 12 mg n=4, Day 7, baseline 16", "result": 81, "unit": "%"}, {"measurement": "MADRS Concentration Difficulties score (sum)", "setting": "[2]; 12 mg n=4, Day 7, baseline 16", "result": 3}, {"measurement": "MADRS Inability to Feel score (sum)", "setting": "[2]; 12 mg n=4, Day 7, baseline 16", "result": 1}, {"measurement": "MADRS Lassitude percentage improvement", "setting": "[2]; 12 mg n=4, Day 7, baseline 16", "result": 81, "unit": "%"}, {"measurement": "MADRS Lassitude score (sum)", "setting": "[2]; 12 mg n=4, Day 7, baseline 16", "result": 3}, {"measurement": "MADRS Pessimistic Thoughts percentage improvement", "setting": "[2]; 12 mg n=4, Day 7, baseline 16", "result": 50, "unit": "%"}, {"measurement": "MADRS Pessimistic Thoughts score (sum)", "setting": "[2]; 12 mg n=4, Day 7, baseline 16", "result": 8}, {"measurement": "MADRS Suicidal Thoughts percentage improvement", "setting": "[2]; IDR n=8, 2 hours, baseline 11", "result": 73, "unit": "%"}, {"measurement": "MADRS Suicidal Thoughts score (sum)", "setting": "[2]; IDR n=8, 2 hours, baseline 11", "result": 3}, {"measurement": "MADRS Inner Tension percentage improvement", "setting": "[2]; IDR n=8, 2 hours, baseline 26", "result": 58, "unit": "%"}, {"measurement": "MADRS Inner Tension score (sum)", "setting": "[2]; IDR n=8, 2 hours, baseline 26", "result": 11}, {"measurement": "MADRS Lassitude percentage improvement", "setting": "[2]; IDR n=8, 2 hours, baseline 27", "result": 63, "unit": "%"}, {"measurement": "MADRS Lassitude score (sum)", "setting": "[2]; IDR n=8, 2 hours, baseline 27", "result": 10}, {"measurement": "MADRS Pessimistic Thoughts percentage improvement", "setting": "[2]; IDR n=8, 2 hours, baseline 28", "result": 75, "unit": "%"}, {"measurement": "MADRS Pessimistic Thoughts score (sum)", "setting": "[2]; IDR n=8, 2 hours, baseline 28", "result": 7}, {"measurement": "MADRS Concentration Difficulties percentage improvement", "setting": "[2]; IDR n=8, 2 hours, baseline 30", "result": 63, "unit": "%"}, {"measurement": "MADRS Concentration Difficulties score (sum)", "setting": "[2]; IDR n=8, 2 hours, baseline 30", "result": 11}, {"measurement": "MADRS Inability to Feel percentage improvement", "setting": "[2]; IDR n=8, 2 hours, baseline 36", "result": 67, "unit": "%"}, {"measurement": "MADRS Inability to Feel score (sum)", "setting": "[2]; IDR n=8, 2 hours, baseline 36", "result": 12}, {"measurement": "MADRS Suicidal Thoughts score (sum)", "setting": "[2]; IDR n=8, Day 1, baseline 11", "result": 1}, {"measurement": "MADRS Reduced Sleep score (sum)", "setting": "[2]; IDR n=8, Day 1, baseline 25", "result": 12}, {"measurement": "MADRS Inner Tension percentage improvement", "setting": "[2]; IDR n=8, Day 1, baseline 26", "result": 77, "unit": "%"}, {"measurement": "MADRS Inner Tension score (sum)", "setting": "[2]; IDR n=8, Day 1, baseline 26", "result": 6}, {"measurement": "MADRS Lassitude percentage improvement", "setting": "[2]; IDR n=8, Day 1, baseline 27", "result": 81, "unit": "%"}, {"measurement": "MADRS Lassitude score (sum)", "setting": "[2]; IDR n=8, Day 1, baseline 27", "result": 5}, {"measurement": "MADRS Pessimistic Thoughts percentage improvement", "setting": "[2]; IDR n=8, Day 1, baseline 28", "result": 86, "unit": "%"}, {"measurement": "MADRS Pessimistic Thoughts score (sum)", "setting": "[2]; IDR n=8, Day 1, baseline 28", "result": 4}, {"measurement": "MADRS Concentration Difficulties percentage improvement", "setting": "[2]; IDR n=8, Day 1, baseline 30", "result": 97, "unit": "%"}, {"measurement": "MADRS Concentration Difficulties score (sum)", "setting": "[2]; IDR n=8, Day 1, baseline 30", "result": 1}, {"measurement": "MADRS Inability to Feel score (sum)", "setting": "[2]; IDR n=8, Day 1, baseline 36", "result": 2}, {"measurement": "MADRS Suicidal Thoughts score (sum)", "setting": "[2]; IDR n=8, Day 7, baseline 11", "result": 3}, {"measurement": "MADRS Reduced Sleep score (sum)", "setting": "[2]; IDR n=8, Day 7, baseline 25", "result": 9}, {"measurement": "MADRS Inner Tension percentage improvement", "setting": "[2]; IDR n=8, Day 7, baseline 26", "result": 54, "unit": "%"}, {"measurement": "MADRS Inner Tension score (sum)", "setting": "[2]; IDR n=8, Day 7, baseline 26", "result": 12}, {"measurement": "MADRS Lassitude percentage improvement", "setting": "[2]; IDR n=8, Day 7, baseline 27", "result": 89, "unit": "%"}, {"measurement": "MADRS Lassitude score (sum)", "setting": "[2]; IDR n=8, Day 7, baseline 27", "result": 3}, {"measurement": "MADRS Pessimistic Thoughts percentage improvement", "setting": "[2]; IDR n=8, Day 7, baseline 28", "result": 89, "unit": "%"}, {"measurement": "MADRS Pessimistic Thoughts score (sum)", "setting": "[2]; IDR n=8, Day 7, baseline 28", "result": 3}, {"measurement": "MADRS Concentration Difficulties percentage improvement", "setting": "[2]; IDR n=8, Day 7, baseline 30", "result": 70, "unit": "%"}, {"measurement": "MADRS Concentration Difficulties score (sum)", "setting": "[2]; IDR n=8, Day 7, baseline 30", "result": 9}, {"measurement": "MADRS Inability to Feel score (sum)", "setting": "[2]; IDR n=8, Day 7, baseline 36", "result": 6}, {"measurement": "Induction of mutation", "setting": "[3]", "result": "did not induce mutation"}, {"measurement": "Tolerability of inhalation procedure", "setting": "[4]", "result": "well tolerated with no inhalation-related adverse events"}, {"measurement": "Adverse events (cramping left abdominal pain and headache)", "setting": "[4]; Day 0", "result": "mild, short-lasting and resolved spontaneously"}, {"measurement": "ECG, safety laboratory analyses, CADSS", "setting": "[4]; ECG 3 hours, laboratory 7 days, CADSS 3 hours, 1 day, 7 days", "result": "unremarkable"}]}
